For orientation: GI50 means the concentration at which growth is held to half of that of the control. Lower therefore signals greater sensitivity of the cells. What is called IC50 is the midpoint of a concentration-inhibition curve.

For test [1], the target named is EGFR (human) (UniProt P00533). As to conditions: snu638.
Test [2] concerns the target EGFR (human) (UniProt P00533). As to conditions: a431.
Test [3] concerns the target EGFR (human) (UniProt P00533). As to conditions: a549.
Test [4] addresses EGFR (human) (UniProt P00533).

Sequence of EGFR (human) (P00533 whole entry, looked up): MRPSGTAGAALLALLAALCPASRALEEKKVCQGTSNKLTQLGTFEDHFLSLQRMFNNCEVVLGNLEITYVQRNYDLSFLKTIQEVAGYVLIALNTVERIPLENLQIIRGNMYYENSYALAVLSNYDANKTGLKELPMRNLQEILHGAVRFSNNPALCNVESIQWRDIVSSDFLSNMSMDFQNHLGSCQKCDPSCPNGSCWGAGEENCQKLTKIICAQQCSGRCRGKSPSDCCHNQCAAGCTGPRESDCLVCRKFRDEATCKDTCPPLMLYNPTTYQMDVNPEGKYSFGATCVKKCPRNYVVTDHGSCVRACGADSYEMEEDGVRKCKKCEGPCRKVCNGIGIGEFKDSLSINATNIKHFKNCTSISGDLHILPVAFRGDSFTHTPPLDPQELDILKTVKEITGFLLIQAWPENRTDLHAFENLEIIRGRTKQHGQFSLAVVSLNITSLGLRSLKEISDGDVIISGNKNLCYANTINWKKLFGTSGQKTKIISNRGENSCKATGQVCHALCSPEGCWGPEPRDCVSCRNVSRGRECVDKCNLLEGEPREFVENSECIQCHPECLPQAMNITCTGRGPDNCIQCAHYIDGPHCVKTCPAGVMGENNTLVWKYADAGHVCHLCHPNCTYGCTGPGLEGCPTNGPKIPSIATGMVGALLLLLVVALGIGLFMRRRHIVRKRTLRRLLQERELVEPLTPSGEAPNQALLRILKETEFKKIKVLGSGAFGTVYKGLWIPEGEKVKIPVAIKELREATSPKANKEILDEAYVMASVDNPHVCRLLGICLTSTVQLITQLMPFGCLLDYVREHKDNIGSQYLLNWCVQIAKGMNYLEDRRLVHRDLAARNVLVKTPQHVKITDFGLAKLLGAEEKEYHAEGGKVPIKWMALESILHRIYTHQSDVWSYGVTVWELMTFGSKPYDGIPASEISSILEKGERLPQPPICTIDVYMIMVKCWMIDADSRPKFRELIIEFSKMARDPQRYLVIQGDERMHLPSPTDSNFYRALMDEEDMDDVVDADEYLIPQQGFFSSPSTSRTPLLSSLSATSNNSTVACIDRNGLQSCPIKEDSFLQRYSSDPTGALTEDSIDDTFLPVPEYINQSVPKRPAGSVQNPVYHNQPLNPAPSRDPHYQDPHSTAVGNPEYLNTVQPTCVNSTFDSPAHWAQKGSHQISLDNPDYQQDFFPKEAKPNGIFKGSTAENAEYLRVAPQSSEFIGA

As for `FC(F)(F)c1cccc(Nc2ncnc3cc4c(cc23)OCCO4)c1`, the GI50 amounted to 2750 nM in the test with EGFR (human) [1], 140 nM in the test with EGFR (human) [2] and 2240 nM with EGFR (human) [3].
Turning to `Clc1cccc(Nc2ncnc3cc4c(cc23)OCCO4)c1`, the GI50 is 4680 nM in the test with EGFR (human) [1], 190 nM with EGFR (human) [2] and 4270 nM with EGFR (human) [3]. Also, the IC50 against EGFR (human) [4] came out at 8.3 nM.
With `Brc1cccc(Nc2ncnc3cc4c(cc23)OCCO4)c1`, the GI50 in the test with EGFR (human) [1] came to 5750 nM; with EGFR (human) [2] it was 200 nM; in the test with EGFR (human) [3], 4370 nM. The compound also came in with a half-maximal inhibitory concentration (IC50) at EGFR (human) [4] of 17.8 nM.
As to `Ic1cccc(Nc2ncnc3cc4c(cc23)OCCO4)c1`, the 50% growth inhibitory concentration (GI50) with EGFR (human) [1] came out at 6170 nM; in the test with EGFR (human) [2], 1550 nM; with EGFR (human) [3], 5620 nM. On EGFR (human) [4], this compound displayed an IC50 of 63 nM.
In the case of `Cc1cc(C)cc(Nc2ncnc3cc4c(cc23)OCCO4)c1`, the GI50 was 170 nM with EGFR (human) [1], 120 nM in the test with EGFR (human) [2] and 230 nM in the test with EGFR (human) [3].
On to `Fc1cc(Nc2ncnc3cc4c(cc23)OCCO4)ccc1Cl`, for which the values for the 50% growth inhibitory concentration (GI50) in the test with EGFR (human) [1], in the test with EGFR (human) [2] and with EGFR (human) [3] were over 100000 nM, 490 nM and 75900 nM, respectively.
As to `c1ccc(Nc2ncnc3cc4c(cc23)OCCO4)cc1`, the GI50 stood at 55000 nM in the test with EGFR (human) [1], 3800 nM with EGFR (human) [2] and 45700 nM in the test with EGFR (human) [3].
Turning to `Fc1ccc(Nc2ncnc3cc4c(cc23)OCCO4)cc1`, the 50% growth inhibitory concentration (GI50) with EGFR (human) [1] came out at 49000 nM; in the test with EGFR (human) [2], 1290 nM; with EGFR (human) [3] it was 40700 nM. The compound further showed an IC50 against EGFR (human) [4] of 77.6 nM.

These data come from the Kinase Knowledgebase extract (Sharma et al. 2016).
